Data taken from patent US20170223976A1, “MODIFIED MILK POWDER CONTAINING 1,5-ANHYDRO-D-GLUCITOL” (NIHON STARCH CO., LTD., priority 2015, published 2017).

Assays:
CSH-1 gene = CSH-1 gene expression in placental trophoblastic cells, real-time RT-PCR; format: cell-based, human; settings: 160 μg/mL 1,5-AG, after 72 hours
Method: The influence upon these two genes (PSG-1 and CSH-1) of 1,5-AG was analyzed by a real-time RT-PCR method using placental trophoblastic cells. As a preliminary study, the expression level of PSG-1 was analyzed at three concentrations (1 μg/mL or less, 40 μg/mL and 160 μg/mL of 1,5-AG) and for three sampling times (3, 24 and 72 hours). A test was conducted by the following method.
Human placental villous trophoblastic cells (ScienCell Research Laboratories)
The human placental villous trophoblastic cells were initiated in a T-75 flask by using a trophoblast medium (to be simply referred to as “medium” hereinafter) to be cultured in a CO2 incubator (5% CO2, 37° C., moistening). […] Then, the supernatant was removed by centrifugation (180 g, 5 minutes), a new medium was added to stir the cells, the number of the cells was counted by using a corpuscle calculating board, and a medium was used to achieve a target concentration (4.0×10^3 cells/100 μL). […]
The PCR reaction was carried out under the conditions of 95° C.·30 sec−(95° C.·10 sec−60° C.·30 sec)×45 cycles−95° C.·15 sec−55° C.·15 sec−95° C.·15 sec, and the dissociation curve of the PCR product was obtained after the end of the PCR reaction. The relative expression level was calculated by the ? […]

PC12 cells = assay: Fluorescence determination of number of living cells and amount of neurite outgrowth (neurite outgrowth staining kit); format: cell-based
Method: A test was carried out at five concentrations (1.6, 8, 40, 200 and 1,000 μg/mL) of 1,5-AG. Stated more specifically, a 1,5-AG aqueous solution having a concentration of 100 mg/mL was diluted with water to prepare 100 times-concentrated solutions having concentrations of 0.16, 0.8, 4, 20 and 100 mg/mL. These 100 times-concentrated solutions were each added to a test medium in a ratio of 1/100 to achieve final concentrations of 1.6, 8, 40, 200 and 1,000 μg/mL and sterilized with a filter to be used in the test. As a negative control, water was added to a medium in a ratio of 1/100 and sterilized with a filter to be used in the test. As a positive control, a test medium containing a 100 ng/mL nerve growth factor (NGF) was used.
A growth medium was used to adjust the cells to a concentration of 2.0×10^3 cells/100 μL/well, and the cells were scattered in a collagen-coated 96-well plate to be cultured in a CO2 incubator (5% CO2, 37° C., moistening) for 24 hours. After culture, the medium was replaced by a sample-containing test medium (100 μL), and the cells were cultured in a CO2 incubator for 96 hours. After the end of culture, an image of the cells in each well was taken with a phase difference microscope and used for the measurement of nuetrite outgrowth rate, and nuclei and cytoplasms were fluorescent dyed by using a neurite outgrowth staining kit to measure the number of living cells and the amount of neurite outgrowth. These procedures were carried out five times each.
After the end of culture, the number of living cells and the amount of neurite outgrowth were determined by using a neurite outgrowth staining kit. Stated more specifically, after the medium was removed, 100 μL of a staining solution (prepared by diluting Cell Viability Indicator and Cell Membrane Stain attached to the kit with calcium magnesium-containing PBS 1,000 times) was added to each well to incubate the cells at 37° C. for 20 minutes. After incubation, the staining solution was removed, 100 μL of a background suppression solution (prepared by diluting the background suppression dye attached to the kit with calcium magnesium-containing PBS 100 times) was added to each well so as to measure fluorescence intensity with a micro plate reader (measurement of the number of living cells: excitation wavelength of 495 nm, fluorescence wavelength of 515 nm, measurement of the amount of neurite outgrowth: excitation wavelength of 555 nm, fluorescent wavelength of 565 nm).

[1] = system: type 2 diabetes model mice; settings: mouse, in vivo; cited from earlier work

**Q.** Which “expression level of CSH-1 gene relative to non-added section” value (CSH-1 gene) does the source give for `OC[C@H]1OC[C@H](O)[C@@H](O)[C@@H]1O` [1,5-AG, 1,5-anhydro-D-glucitol] here?
**A.** Its value is 0.92 time.

**Q.** And the “amount of neurite outgrowth as compared with the non-added section” value (PC12 cells; 8 μg/mL section)?
**A.** Its value is 113.4%.

**Q.** What about the “amount of neurite outgrowth as compared with the non-added section” value (PC12 cells; 40 μg/mL section) of the same compound?
**A.** Its value is 113.3%.

**Q.** What about the “number of living cells” value (PC12 cells; all test sections versus negative control, 96 hours) of the same compound?
**A.** The value was “about the same as that of a negative control”.

**Q.** What about the anti-inflammatory effect [1] of the same compound?
**A.** Its anti-inflammatory effect is “anti-inflammatory effect”.
